Experimental data taken from ChEMBL document CHEMBL1201862, “PubChem BioAssay data set” (2004).
Calls of active or inactive are those of the source.

How the values were obtained:
[1] = target: Peroxisome proliferator-activated receptor gamma/Nuclear receptor coactivator 2 (Homo sapiens, UniProt P37231); format: functional;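 further: agonist potency for raising coactivator recruitment to the receptor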
[2] = target: Peroxisome proliferator-activated receptor gamma/Nuclear receptor coactivator 3 (Homo sapiens, UniProt P37231); format: functional;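 further: agonist potency for raising coactivator recruitment to the receptor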
[3] = target: Peroxisome proliferator-activated receptor gamma/Nuclear receptor coactivator 1 (Homo sapiens, UniProt P37231); format: functional;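 further: agonist potency as compounds enhance coactivator SRC-1 recruitment to PPARgamma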
HeLa = test: HeLa cell cytotoxicity, dose response, cytotoxicity control, 24 h, cherry-picked samples (AID 504726); format: functional, cell-based; details: Homo sapiens;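 further: potency for cytotoxicity as loss of luminescence signal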
[4] = target: T1, Zinc finger protein mex-5 (Caenorhabditis elegans, UniProt Q9XUB2); test: MEX-5/TCR-2 RNA interaction inhibitors, dose response, biochemical, C. elegans, fluorescence polarization (AID 1960)
T1 sequence (Q9XUB2 whole entry): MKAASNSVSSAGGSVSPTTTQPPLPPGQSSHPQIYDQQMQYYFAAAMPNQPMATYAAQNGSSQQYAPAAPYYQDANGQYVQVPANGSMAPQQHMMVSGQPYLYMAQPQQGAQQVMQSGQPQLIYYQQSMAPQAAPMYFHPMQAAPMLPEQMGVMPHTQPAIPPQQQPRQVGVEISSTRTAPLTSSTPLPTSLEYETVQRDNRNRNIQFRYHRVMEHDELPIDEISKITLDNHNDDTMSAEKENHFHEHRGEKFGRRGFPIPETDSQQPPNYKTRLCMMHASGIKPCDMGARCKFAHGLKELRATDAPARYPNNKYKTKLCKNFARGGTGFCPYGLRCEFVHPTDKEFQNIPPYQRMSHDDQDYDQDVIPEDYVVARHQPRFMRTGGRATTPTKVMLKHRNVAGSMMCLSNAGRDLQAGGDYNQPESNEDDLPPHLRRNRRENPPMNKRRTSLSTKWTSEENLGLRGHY

[5] = target: T2, RNA-binding protein pos-1 (Caenorhabditis elegans, UniProt G5EF15); test: inhibitors of POS-1/mex-3 RNA binding, dose response, biochemical, fluorescence polarization (AID 1964);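 further: purified POS-1 fused to maltose binding protein made in E. coli; potency of compounds blocking POS-1 binding to fluorescent RNA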
T2 sequence (G5EF15 whole entry): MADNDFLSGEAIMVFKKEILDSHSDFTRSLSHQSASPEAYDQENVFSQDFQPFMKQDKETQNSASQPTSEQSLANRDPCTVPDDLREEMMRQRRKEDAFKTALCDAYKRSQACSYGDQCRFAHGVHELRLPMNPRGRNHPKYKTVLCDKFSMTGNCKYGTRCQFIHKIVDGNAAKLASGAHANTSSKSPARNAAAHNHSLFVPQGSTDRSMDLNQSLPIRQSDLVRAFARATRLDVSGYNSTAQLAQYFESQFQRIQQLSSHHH

[6] = target: G-protein coupled receptor 55 (Homo sapiens, UniProt Q9Y2T6); test: GPR55 antagonists blocking LPI-driven arrestin recruitment, primary screen, imaging, U2OS, beta-arrestin-GFP, LPI agonist (AID 2013); format: functional;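 further: antagonist potency measured as reduced agonist-driven arrestin aggregation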
Ion channel NompC = Ion channel NompC (Danio rerio, UniProt Q7T1G6); test: Fluorescence counterscreen assay for TRPML3 agonists: dose response cell-based high-throughput screening assay to identify agonists of the transient receptor potential channel N1 (TRPN1). [Related pubchem assays: 1526, 1424, 1448 ]; format: functional
Mucolipin-3 = target: T3, Mucolipin-3 (Homo sapiens, UniProt Q8TDD5); test: Dose response cell-based high-throughput screening assay for agonists of the transient receptor potential channel ML3 (TRPML3). [Related pubchem assays: 1526, 1424, 1448 ]; format: functional
T3 sequence (Q8TDD5 whole entry): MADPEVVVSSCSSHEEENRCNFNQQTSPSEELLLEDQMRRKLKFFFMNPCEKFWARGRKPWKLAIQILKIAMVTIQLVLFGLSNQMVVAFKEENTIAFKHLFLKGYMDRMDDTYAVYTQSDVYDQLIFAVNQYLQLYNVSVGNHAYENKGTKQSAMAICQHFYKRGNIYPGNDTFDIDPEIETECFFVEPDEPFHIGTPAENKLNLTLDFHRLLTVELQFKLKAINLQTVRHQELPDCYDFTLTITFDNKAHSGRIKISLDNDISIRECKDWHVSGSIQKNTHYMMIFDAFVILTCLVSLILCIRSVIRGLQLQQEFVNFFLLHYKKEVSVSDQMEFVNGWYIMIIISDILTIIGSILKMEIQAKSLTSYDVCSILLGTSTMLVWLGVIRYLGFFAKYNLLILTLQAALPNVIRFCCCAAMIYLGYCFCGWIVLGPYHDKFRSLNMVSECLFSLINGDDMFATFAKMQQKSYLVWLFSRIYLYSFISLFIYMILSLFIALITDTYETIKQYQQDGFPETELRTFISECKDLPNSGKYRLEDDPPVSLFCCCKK

[7] = target: T4, Heat shock factor protein 1 (Mus musculus, UniProt P38532); test: inhibition of MG132-induced HSE-luciferase signal, confirmation, cell-based, NIH3T3, luminescence, dose retest (AID 2382); format: functional;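 further: NIH3T3 fibroblasts with HSF1-driven luciferase reporter stressed by proteasome inhibitor MG132; luminescence from HSF1-driven luciferase expression after 8 hours of MG132 stress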
T4 sequence (P38532 whole entry): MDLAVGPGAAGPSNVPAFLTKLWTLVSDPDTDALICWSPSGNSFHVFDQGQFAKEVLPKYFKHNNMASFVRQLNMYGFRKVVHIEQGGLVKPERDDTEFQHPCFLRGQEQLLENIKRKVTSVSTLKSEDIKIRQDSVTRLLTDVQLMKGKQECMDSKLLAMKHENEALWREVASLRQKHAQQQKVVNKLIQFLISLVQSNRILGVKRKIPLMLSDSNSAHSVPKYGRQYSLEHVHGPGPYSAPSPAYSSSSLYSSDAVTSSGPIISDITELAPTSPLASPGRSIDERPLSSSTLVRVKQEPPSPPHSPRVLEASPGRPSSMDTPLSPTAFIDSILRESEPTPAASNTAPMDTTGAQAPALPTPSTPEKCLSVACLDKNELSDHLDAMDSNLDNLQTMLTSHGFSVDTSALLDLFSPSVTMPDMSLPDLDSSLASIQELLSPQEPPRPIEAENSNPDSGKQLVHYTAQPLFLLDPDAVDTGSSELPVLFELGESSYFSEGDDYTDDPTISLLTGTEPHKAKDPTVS

Leucine aminopeptidase = target: T5, Leucine aminopeptidase (Plasmodium falciparum 3D7, UniProt Q8IL11); test: P. falciparum M17LAP inhibitors, primary screen, biochemical, fluorogenic H-Leu-NHMec substrate, 1536-well (AID 1619); format: functional
T5 sequence (Q8IL11 whole entry): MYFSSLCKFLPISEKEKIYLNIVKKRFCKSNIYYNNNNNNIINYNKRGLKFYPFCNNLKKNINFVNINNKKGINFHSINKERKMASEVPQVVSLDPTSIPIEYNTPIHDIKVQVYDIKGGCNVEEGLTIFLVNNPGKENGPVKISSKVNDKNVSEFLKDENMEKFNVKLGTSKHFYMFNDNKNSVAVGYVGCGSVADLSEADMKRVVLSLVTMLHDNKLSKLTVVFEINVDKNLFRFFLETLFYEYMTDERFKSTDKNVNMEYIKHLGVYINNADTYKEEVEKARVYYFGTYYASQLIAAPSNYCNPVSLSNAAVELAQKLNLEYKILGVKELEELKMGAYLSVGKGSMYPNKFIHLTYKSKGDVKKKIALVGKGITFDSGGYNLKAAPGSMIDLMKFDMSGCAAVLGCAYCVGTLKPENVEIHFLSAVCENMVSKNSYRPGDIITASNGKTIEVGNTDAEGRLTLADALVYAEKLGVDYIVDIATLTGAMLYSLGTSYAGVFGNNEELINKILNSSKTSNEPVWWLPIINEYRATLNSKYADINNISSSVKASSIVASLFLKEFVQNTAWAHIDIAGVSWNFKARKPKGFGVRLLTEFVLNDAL

HEK293 [8] = test: NOD1 signaling inhibitors, primary screen, cell-based, luminescence, uHTS (AID 1578); format: functional; details: Homo sapiens
HEK293 [9] = test: cells; format: functional, cell-based; details: Homo sapiens
HEK293 [10] = test: cells; format: functional, cell-based; details: Homo sapiens; remark: listed apart in the source
[11] = target: Nucleotide-binding oligomerization domain-containing protein 2 (Homo sapiens, UniProt Q9HC29); test: NOD2 signaling inhibitors, cell-based, luminescence, uHTS, HEK293 (AID 1566); format: functional
HEK293 [12] = test: cells; format: functional, cell-based; details: Homo sapiens; remark: listed apart in the source
HEK293 [13] = test: NOD2 signaling inhibitors in MDP-stimulated cells, cell-based, uHTS, luminescence (AID 2001); format: functional; details: Homo sapiens
[14] = target: DNA dC->dU-editing enzyme APOBEC-3G (Homo sapiens, UniProt Q9HC16); test: Dose Response confirmation of small molecule APOBEC3G DNA Deaminase Inhibitors via a fluorescence-based single-stranded DNA deaminase assay. [Related pubchem assays (depositor defined):AID493012, AID493028]; format: functional
[15] = target: DNA dC->dU-editing enzyme APOBEC-3A (Homo sapiens, UniProt P31941); test: APOBEC3A DNA deaminase inhibitors, dose response, biochemical (AID 504722); format: functional
Large T antigen = Large T antigen (Simian virus 40, UniProt P03070); format: functional, Betapolyomavirus macacae;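 further: Confirmatory-stage PubChem screen for compounds that inhibit SV40 T antigen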

Chain of Peroxisome proliferator-activated receptor gamma/Nuclear receptor coactivator 2 (P37231 whole entry): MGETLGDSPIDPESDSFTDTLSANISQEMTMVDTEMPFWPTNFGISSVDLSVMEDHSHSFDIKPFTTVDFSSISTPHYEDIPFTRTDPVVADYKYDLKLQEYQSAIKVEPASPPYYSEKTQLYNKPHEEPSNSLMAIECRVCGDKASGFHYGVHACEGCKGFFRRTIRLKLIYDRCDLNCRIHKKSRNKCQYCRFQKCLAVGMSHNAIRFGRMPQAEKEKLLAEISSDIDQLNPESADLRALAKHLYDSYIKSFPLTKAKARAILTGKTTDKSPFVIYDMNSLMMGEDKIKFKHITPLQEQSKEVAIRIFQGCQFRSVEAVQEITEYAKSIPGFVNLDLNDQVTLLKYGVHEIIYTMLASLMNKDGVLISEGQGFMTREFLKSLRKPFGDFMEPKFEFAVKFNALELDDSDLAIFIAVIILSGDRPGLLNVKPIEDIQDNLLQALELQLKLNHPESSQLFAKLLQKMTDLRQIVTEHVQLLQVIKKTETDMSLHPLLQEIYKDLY
Chain of Peroxisome proliferator-activated receptor gamma/Nuclear receptor coactivator 2 (Q15596 whole entry, further chain): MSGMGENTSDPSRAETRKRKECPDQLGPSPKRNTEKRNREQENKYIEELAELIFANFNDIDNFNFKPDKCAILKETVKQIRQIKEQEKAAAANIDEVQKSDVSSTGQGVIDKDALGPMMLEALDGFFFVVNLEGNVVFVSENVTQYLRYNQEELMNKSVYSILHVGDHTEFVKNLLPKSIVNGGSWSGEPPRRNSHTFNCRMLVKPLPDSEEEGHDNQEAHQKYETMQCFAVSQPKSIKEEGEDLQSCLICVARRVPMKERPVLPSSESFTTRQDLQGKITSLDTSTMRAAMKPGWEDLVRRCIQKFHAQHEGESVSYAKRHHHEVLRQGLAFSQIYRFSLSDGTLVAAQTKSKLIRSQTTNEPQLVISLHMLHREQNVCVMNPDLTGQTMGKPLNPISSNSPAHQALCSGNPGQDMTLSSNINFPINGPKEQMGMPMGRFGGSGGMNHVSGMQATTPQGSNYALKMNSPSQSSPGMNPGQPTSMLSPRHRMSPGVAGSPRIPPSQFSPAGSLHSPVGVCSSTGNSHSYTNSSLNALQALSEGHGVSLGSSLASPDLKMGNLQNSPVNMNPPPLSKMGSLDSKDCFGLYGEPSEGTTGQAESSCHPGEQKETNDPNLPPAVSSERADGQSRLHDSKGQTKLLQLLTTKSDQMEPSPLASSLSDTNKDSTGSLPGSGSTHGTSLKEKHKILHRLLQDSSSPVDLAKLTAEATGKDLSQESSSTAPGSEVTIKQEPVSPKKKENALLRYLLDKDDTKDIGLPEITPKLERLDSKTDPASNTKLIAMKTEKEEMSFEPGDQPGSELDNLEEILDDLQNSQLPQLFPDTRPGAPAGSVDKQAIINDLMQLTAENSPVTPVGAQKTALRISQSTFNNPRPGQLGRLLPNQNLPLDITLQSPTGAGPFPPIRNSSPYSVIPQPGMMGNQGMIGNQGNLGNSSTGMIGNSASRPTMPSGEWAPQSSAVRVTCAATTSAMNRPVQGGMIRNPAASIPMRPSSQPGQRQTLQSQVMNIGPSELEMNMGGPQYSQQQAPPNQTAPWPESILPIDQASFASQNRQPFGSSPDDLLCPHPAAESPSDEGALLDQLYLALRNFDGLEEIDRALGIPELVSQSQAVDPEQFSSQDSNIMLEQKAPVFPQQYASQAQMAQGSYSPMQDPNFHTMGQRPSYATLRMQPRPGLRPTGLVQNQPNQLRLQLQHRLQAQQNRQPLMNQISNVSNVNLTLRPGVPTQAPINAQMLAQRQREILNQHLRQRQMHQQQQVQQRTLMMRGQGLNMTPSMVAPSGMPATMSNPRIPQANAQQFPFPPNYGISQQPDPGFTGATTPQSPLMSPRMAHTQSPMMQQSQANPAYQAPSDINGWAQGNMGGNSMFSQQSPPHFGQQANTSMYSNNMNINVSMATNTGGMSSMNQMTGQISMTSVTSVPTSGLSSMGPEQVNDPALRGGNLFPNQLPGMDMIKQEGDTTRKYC
Chain of Peroxisome proliferator-activated receptor gamma/Nuclear receptor coactivator 1 (P37231 whole entry): as the sequence (P37231 whole entry) above
Chain of Peroxisome proliferator-activated receptor gamma/Nuclear receptor coactivator 1 (Q15788 whole entry, further chain): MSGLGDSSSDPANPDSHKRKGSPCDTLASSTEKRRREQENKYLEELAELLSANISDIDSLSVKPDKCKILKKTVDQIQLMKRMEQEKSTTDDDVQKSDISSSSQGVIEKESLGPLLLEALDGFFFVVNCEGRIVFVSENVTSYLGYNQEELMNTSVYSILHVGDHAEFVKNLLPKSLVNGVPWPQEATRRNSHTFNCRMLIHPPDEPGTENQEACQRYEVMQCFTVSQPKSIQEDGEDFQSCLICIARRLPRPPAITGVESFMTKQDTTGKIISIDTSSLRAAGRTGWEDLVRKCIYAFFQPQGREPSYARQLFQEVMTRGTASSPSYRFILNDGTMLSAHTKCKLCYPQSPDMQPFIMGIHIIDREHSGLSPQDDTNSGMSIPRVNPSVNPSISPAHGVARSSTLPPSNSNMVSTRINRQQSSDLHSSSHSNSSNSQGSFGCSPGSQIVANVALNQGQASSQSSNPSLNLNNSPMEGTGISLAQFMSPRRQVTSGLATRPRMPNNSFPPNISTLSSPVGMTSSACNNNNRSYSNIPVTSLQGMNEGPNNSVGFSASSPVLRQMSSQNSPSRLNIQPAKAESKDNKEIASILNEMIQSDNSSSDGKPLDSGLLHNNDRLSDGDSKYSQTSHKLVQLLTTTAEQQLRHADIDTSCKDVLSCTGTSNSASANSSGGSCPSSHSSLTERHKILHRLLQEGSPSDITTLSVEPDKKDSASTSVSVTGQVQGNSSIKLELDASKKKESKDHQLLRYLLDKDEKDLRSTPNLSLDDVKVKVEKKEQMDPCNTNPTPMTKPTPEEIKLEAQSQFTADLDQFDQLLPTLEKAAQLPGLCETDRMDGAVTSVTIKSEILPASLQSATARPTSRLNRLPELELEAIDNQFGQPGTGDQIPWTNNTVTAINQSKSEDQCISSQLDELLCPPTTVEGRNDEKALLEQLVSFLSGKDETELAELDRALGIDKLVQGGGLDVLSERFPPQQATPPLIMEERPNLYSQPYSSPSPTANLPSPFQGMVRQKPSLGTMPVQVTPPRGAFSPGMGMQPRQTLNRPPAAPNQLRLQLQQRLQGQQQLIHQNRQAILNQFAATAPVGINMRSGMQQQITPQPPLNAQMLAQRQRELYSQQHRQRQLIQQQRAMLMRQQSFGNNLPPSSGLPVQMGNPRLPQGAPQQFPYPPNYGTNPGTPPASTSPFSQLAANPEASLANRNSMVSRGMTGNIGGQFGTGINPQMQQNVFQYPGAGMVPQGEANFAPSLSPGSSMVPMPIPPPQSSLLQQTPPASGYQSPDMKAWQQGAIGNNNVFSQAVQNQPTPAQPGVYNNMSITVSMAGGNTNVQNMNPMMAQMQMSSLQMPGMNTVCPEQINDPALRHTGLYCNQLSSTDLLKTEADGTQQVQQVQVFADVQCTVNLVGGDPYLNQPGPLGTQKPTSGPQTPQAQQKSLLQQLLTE
Chain of DNA dC->dU-editing enzyme APOBEC-3G (Q9HC16 whole entry): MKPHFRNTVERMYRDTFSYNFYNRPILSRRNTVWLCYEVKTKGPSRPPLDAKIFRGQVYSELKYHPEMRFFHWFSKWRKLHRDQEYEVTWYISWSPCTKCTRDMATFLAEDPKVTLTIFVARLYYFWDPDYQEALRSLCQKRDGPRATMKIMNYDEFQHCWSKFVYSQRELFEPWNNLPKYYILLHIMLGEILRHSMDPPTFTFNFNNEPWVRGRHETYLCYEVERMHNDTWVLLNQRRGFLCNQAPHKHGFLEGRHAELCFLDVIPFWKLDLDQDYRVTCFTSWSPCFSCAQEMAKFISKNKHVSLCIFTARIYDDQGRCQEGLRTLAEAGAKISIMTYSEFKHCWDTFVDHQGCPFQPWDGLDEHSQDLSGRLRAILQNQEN
Chain of DNA dC->dU-editing enzyme APOBEC-3A (P31941 whole entry): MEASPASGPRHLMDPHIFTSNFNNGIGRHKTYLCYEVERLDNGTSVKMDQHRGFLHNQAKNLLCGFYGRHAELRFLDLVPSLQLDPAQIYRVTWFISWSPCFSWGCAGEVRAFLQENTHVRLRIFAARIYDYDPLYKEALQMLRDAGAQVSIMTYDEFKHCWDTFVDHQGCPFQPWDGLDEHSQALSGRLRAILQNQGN
Chain of G-protein coupled receptor 55 (Q9Y2T6 whole entry): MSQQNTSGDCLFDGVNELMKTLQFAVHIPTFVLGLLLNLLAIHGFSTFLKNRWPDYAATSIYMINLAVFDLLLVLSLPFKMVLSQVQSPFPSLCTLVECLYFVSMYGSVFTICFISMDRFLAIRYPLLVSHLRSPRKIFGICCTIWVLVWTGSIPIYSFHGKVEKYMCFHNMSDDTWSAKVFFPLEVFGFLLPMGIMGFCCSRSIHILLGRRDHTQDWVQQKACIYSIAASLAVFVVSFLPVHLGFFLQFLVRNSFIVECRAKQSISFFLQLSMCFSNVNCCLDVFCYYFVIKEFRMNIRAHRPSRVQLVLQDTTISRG

CC(C)[C@H](NC(=O)OC(C)(C)C)c1nnc(SCc2cccc(F)c2)o1
EC50 [1]: 24 µM (not active)
EC50 [2]: 16.9 µM (not active)
EC50 [3]: 8.46 µM (active)

CCOC(=O)c1c(C)n(C)c2ccc(OCCN(C)C)cc12
AC50 (HeLa): > 350 µM (inactive)

Cc1ccc(/C=C2/C(=O)NC(=O)N(CCc3ccc(F)cc3)C2=O)o1
EC50 [4]: 290 µM (active)
EC50 [5]: > 300 µM (not active)
IC50 [6]: 4.5 µM (active)

CCOC(=O)C1CCN(CCC(=O)Nc2ccc(C)c(C)c2)CC1
EC50 [1]: > 79.4 µM (not active)
EC50 [2]: > 79.4 µM (not active)
EC50 [3]: > 79.4 µM (not active)

CC1CC(C)CN(C(=O)c2ccc3ncsc3c2)C1 (stereo not drawn)
AC50 (HeLa): 95.4 µM (active)

CCC1CCCCN1S(=O)(=O)c1ccc(S(=O)(=O)N(Cc2cccs2)C2CC2)cc1 (stereo not drawn)
EC50 (Ion channel NompC): > 29.9 µM (not active)
EC50 (Mucolipin-3): 1.16 µM (active)

Cc1ccc(S(=O)(=O)N2CCC(C)CC2)cc1[N+](=O)[O-]
EC50 [7]: > 195 µM (not active)
EC50 (Ion channel NompC): > 29.9 µM (not active)
EC50 (Mucolipin-3): 3.51 µM (active)

CC(Sc1nc2ccccc2s1)C(=O)Nc1nnc(C(C)C)s1 (stereo not drawn)
EC50 [7]: > 195 µM (not active)
AC50 (HeLa): > 350 µM (inactive)
IC50 (Leucine aminopeptidase): 2.84 µM (active)

Cc1cc(C(=O)COc2cccnc2[N+](=O)[O-])c(C)n1Cc1cccs1
EC50 (HEK293 [8]): > 20 µM (inactive)
IC50 (HEK293 [9]): > 20 µM (inactive)
IC50 (HEK293 [10]): > 20 µM (inactive)
EC50 [11]: 8.89 µM (active)
IC50 (HEK293 [12]): > 20 µM (inactive)
IC50 (HEK293 [13]): > 20 µM (inactive)

COc1cccc2cc(-c3n[nH]c(=S)n3C)oc12
IC50 [14]: 2.18 µM (active)
IC50 [15]: > 100 µM (inactive)

Cn1ncc([N+](=O)[O-])c1C(=O)N/N=C/c1ccc(F)cc1
EC50 [1]: > 79.4 µM (not active)
EC50 [2]: > 79.4 µM (not active)
EC50 [3]: > 79.4 µM (not active)

COc1cc(/C=N/n2c(S)nnc2-c2[nH]nc3c2CCC3)ccc1O
IC50 [14]: 1.56 µM (active)
IC50 [15]: > 100 µM (inactive)
IC50 (Large T antigen): 7.5 µM (active)
